Here are results for 2 molecules from publication PMC7651685 (Psychopharmacology, 2020).

By Cmax is commonly meant the highest concentration seen after dosing. The term IC50 denotes the concentration at which inhibition is half-maximal.

One series concerns plasma protein. Particulars: cited from earlier work.
The test system of series [1] is dopamine efflux in the nucleus accumbens. The arrangement: method as in Rowley et al. [2017]. Particulars: rat nucleus accumbens microdialysis; ref Rowley et al. [2017]; cited from earlier work.
The next series deals with D2 receptors. Kind of series: [11C]-Raclopride PET: elevation of synaptic dopamine. As for the experimental part:
Two female rhesus macaques (weight, 8.4 ± 0.2 kg; age, 16.6 ± 0.5) were scanned with [^11C]-Raclopride a total of 8 times, each under 4 scanning conditions per test agent. All scans were performed with [^11C]-Raclopride (tracer mass limited to 0.25 μg/kg) administered as an intravenous (i.v.) bolus + constant infusion (3 min bolus +132 min infusion; Kbol = 60 min; injected dose 5.8 ± 1.0 mCi). Scan data collection began simultaneously with tracer injection using the Siemens FOCUS 220 PET scanner. The scan data was acquired for 135 min and binned into sinograms with the following frame timing: 6 × 30 s; 3 × 1 min; 2 × 2 min; and 25 × 5 min. Prior to each tracer injection, a transmission scan was performed with an external gamma source for attenuation correction.
Experiment day 1 consisted of an initial [^11C]-Raclopride injection with MPH given i.v. at 45 min post-start of tracer administration under tracer steady-state conditions (displacement experiment). A second [^11C]-Raclopride scan was initiated ~ 2.5–3.5 h after the start of scan 1. Experiment day 2 consisted of a MPH pre-block initiated ~ 30 min prior to the first scan. A second scan was again initiated ~ 2.5–3.5 h after the start of scan 1. This same 2-day scanning paradigm was completed for both subjects and repeated using DAS in place of MPH. The test agent doses used were 0.2 mg/kg for DAS and 0.5 mg/kg for MPH. A minimum of 2-week recovery time was allowed between scans with the same subject.
Dynamic scan data were reconstructed with a filtered back-projection algorithm with corrections for attenuation, normalization, scatter, and randoms. ROIs were manually delineated on a single representative anatomical rhesus monkey magnetic resonance image (MRI) registered to a template image. Regions used in this study were caudate and putamen with the cerebellum as the reference region. Registration parameters were obtained to apply the ROIs to individual PET scans, and regional TACs were generated for the ROIs. Apparent binding potential (BPND) curves (target-to-cerebellum ratio - 1) were calculated for putamen and caudate by pooling the data from the 4 injections for each animal/drug combination. The following models were used to describe the apparent BPND curves. Model 1 is based on a gamma function where the occupancy increases, reaches a maximum, and then decreases, and both phases can be measured in the study. Model 2 has only increasing occupancy with time, approaching an asymptotic value. • Model 1: Four-parameter model (gamma function):
The change of BPND over time is modeled using a gamma function. BPNDt=BP01−At−t0^αexp−βt−t0t≥t0
The model can be reformulated as follows: BPNDt=BP01−Occ^maxt−t0/tmax−t0^αexpα1−t−t0/tmax−t0t≥t0α≡−ln2/1−τ+lnττ≡t1/2,R−t0/tmax−t0τ<1ort1/2,F−t0/tmax−t0τ>1 where t0 is the known time of drug administration and BP0 is the apparent BPND at time t0. The maximum occupancy, Occ^max, is obtained at time, tmax. The occupancy rises to 50% of Occ^max at the time, t1/2,R (< tmax), and falls to 50% of Occ^max at time, t1/2,F (> tmax). The 4 parameters of this model are BP0, Occ^max, tmax, and t1/2,R (or t1/2,F). • Model 2: Three-parameter model: BPNDt=BP01−Occ^max1−exp−βt−t0,β=ln2/t1/2,R−t0t≥t0
The parameters of this model are BP0, Occ^max, and t1/2,R.

Series [2] can be described thus: Plasma levels of DAS or MPH during the displacement studies. The series is classed as in vivo, rhesus macaques (Macaca mulatta). Particulars: for Average plasma (infusion period): individual animals A, B. As for the experimental part: Venous blood samples (1 ml) were collected during the respective bolus and 4-step infusion displacement studies to measure the plasma levels of either DAS or MPH. Blood samples were collected in K3 EDTA vials, processed for plasma, frozen, and stored at − 20 °C until required for HPLC analysis of either DAS or MPH levels.

Series [3] deals with DAT. To be noted: cited from earlier work.
Series [4] can be described thus: Extrapolated permeability and half-time to reach brain equilibrium (equation of Liu et al.). The source says: While lipid solubility and protein binding influences brain penetration, it appears that it is the combination of these two properties that influences the rate of brain penetration of a drug (Liu et al [2005]). […] The half-time to reach brain equilibrium (t1/2 equil) can be estimated by the following equation:
t1/2 equil = Vbln2/(PS.fu,brain)
where Vb is brain volume, PS is the permeability surface area product, P is the permeability rate, S is the surface area and fu is the unbound (free) drug brain concentration.
For comparative purposes between MPH and DAS, we can assume Vb and surface area are the same for both drugs, and the above equation becomes: t1/2equil∝1/P.fu,brain
As mentioned above, plasma protein binding of DAS and MPH are ~ 0.97 (or ~ 97%) and ~ 0.14 (or 14%) respectively, and the free plasma concentration of DAS is 0.03 and for MPH, it is 0.86. Since free drug plasma concentration is equal to free drug brain concentration, we can apply the free drug plasma concentration values of DAS and MPH together with the extrapolated permeability for DAS (12P) and MPH (P) to approximate t1/2 equil for both drugs, i.e.,

The subject of series [5] is DAT. To be noted: ref Rowley et al. [2017]; read-out: Affinity for DAT, IC50; cited from earlier work.
Series [6] concerns efflux transporters of the ATP binding cassette (ABC) superfamily. To be noted: LLC-PK1 cell monolayers and Xenopus Laevis Oocytes; Data-on-file; ref Sunovion Reports #531, 544, 575; cited from earlier work.
For series [7] the following is noted: orally administered, recreational stimulant users; ref Koblan et al. [2016]; cited from earlier work.
Series [8] has as its system solute carrier (SLC) and organic anion transporters (OAT). Particulars: LLC-PK1 cell monolayers and Xenopus Laevis Oocytes; Data-on-file; ref Sunovion Reports #531, 544, 575; cited from earlier work.
The test system of the next series is P-gp. Particulars: LLC-PK1 cell monolayers and Xenopus Laevis Oocytes; Data-on-file; ref Sunovion Reports #531, 544, 575; cited from earlier work.
For series [9] the following is noted: rodent, 14C-DAS; Data-on-file; ref Sunovion report 360-365; cited from earlier work.
Where [10] appears, read: MPH 0.5 mg/kg i.v., model 1 fit.
Setting [11] is: DAS 0.2 mg/kg i.v., model 2 fit.

SMILES strings stand for the structures. “And” between values parts separate entries of the source, which are not always exact repeats. Identical values can stand only once. Counter-ions that a name gives are not always drawn. Like-named read-outs stand apart in the source and are kept apart here.

Regarding `COC(=O)C(c1ccccc1)C1CCCCN1` (racemic) [MPH, (±)-Methyl α-Phenyl-α-(2-piperidyl)acetate hydrochloride, reference compound], the Plasma protein binding in the series on plasma protein (ref Faraj et al. [1974]) was less than 14%. Besides, in [1], the “Time of peak of dopamine efflux” value is 40 min. Besides, the “Maximum reduction in [11C]-raclopride binding (Occmax) in caudate and putamen” value with D2 receptors (setting [10]) came out at 27%. Moreover, the “Time for half-maximal displacement (t1/2,R) of [11C]-raclopride” value in the series on D2 receptors (setting [10]) is 23 min. Also, the “Time for half-maximal displacement of [11C]-raclopride shorter than for DAS” value in the series on D2 receptors (MPH 0.5 mg/kg relative to DAS 0.2 mg/kg) is recorded as 4 fold. Also, the “Cmax, Mean ± SD” value in series [2] (MPH 0.1 mg/kg i.v. 3 min bolus, group mean) was found to be 169.2 ± 28.4 ng/mL. For the same molecule, the Cmax was 137 ng/mL and 177 ng/mL and 117 ng/mL in series [2] (MPH 0.1 mg/kg i.v. 3 min bolus, individual animals A-D); 823 ng/mL and 609 ng/mL and 729 ng/mL in series [2] (MPH 0.5 mg/kg i.v. 3 min bolus, individual animals A-D); 169 ± 28.4 ng/mL in series [2] (rhesus monkey, plasma, iv, 0.1 mg/kg, MPH 0.1 mg/kg i.v. 3 min bolus, group mean, read-out: Cmax, Mean ± SD); 823 ± 111 ng/mL in series [2] (rhesus monkey, plasma, iv, 0.5 mg/kg, MPH 0.5 mg/kg i.v. 3 min bolus, group mean, read-out: Cmax, Mean ± SD); 1130 ng/mL in series [2] (rhesus monkey, plasma, iv, 0.5 mg/kg, MPH 0.5 mg/kg i.v. 3 min bolus, individual animals A-D, read-out: Cmax). The “Average plasma (infusion period)” value in series [2] (MPH 4.3 mg, bolus plus 4-step infusion over 40 min) is 111.9 ng/mL and 91.52 ng/mL. The “DAT occupancy OC50” value in the series with DAT [3] (ref Spencer et al. [2006]) was 6 ng/mL. Further, the “Faster than DAS in reaching brain equilibrium” value in [4] (MPH relative to DAS, from t1/2equil) was more than 2 fold.

As to `N[C@@H]1CC[C@@H](c2ccc(Cl)c(Cl)c2)c2ccccc21` [DAS, (1R,4S)-4-(3,4-dichlorophenyl)-1,2,3,4-tetra-hydronaphthalen-1-amine], in the series on plasma protein (Data-on-file, ref Sunovion report 360–455), the Plasma protein binding is ~ 97%. In the series with plasma protein (as fraction, Sunovion report 360–455 (DAS)), the “Plasma protein binding (fraction)” value is ~ 0.97. Moreover, the IC50 in the series on DAT [5] is 3 nM. Moreover, the “Time to reach maximum effect on dopamine efflux post-dose” value in [1] was “up to 2 h”. Also, the “Maximum reduction in [11C]-raclopride binding (Occmax) in caudate and putamen” value in the series with D2 receptors (setting [11]) is given as 29%. Further, the “Time for half-maximal displacement (t1/2,R) of [11C]-raclopride” value in the series with D2 receptors (setting [11]) is 88 min. The “Time to 50% maximum displacement of [11C]-Raclopride / elevation of synaptic DA slower than MPH” value with D2 receptors (DAS relative to MPH) was ~ 4 fold and 4 fold. The Cmax in series [2] (DAS 0.1 mg/kg i.v. 3 min bolus, individual animals A-D) was 87.9 ng/mL and 25.9 ng/mL and 102 ng/mL and 54.6 ng/mL; in series [2] (DAS 0.2 mg/kg i.v. 3 min bolus, individual animals A-D), 213 ng/mL and 123 ng/mL; in series [2] (rhesus monkey, plasma, iv, 0.1 mg/kg, DAS 0.1 mg/kg i.v. 3 min bolus, group mean, read-out: Cmax, Mean ± SD), 71.9 ± 23.4 ng/mL; in [2] (rhesus monkey, plasma, iv, 0.2 mg/kg, DAS 0.2 mg/kg i.v. 3 min bolus, group mean, read-out: Cmax, Mean ± SD), 175 ± 26.9 ng/mL; in [2] (rhesus monkey, plasma, iv, 0.2 mg/kg, DAS 0.2 mg/kg i.v. 3 min bolus, individual animals A-D, read-out: Cmax), 190 ng/mL. Further, the “Average plasma (infusion period)” value in series [2] (DAS 6.0 mg, bolus plus 4-step infusion over 40 min) was 34.86 ng/mL and 32.38 ng/mL. In addition, in [2] (DAS 6.0 mg, bolus plus 4-step infusion over 40 min, mean of two animals), the “Average plasma (infusion period), Mean” value was 33.62 ng/mL. Further, in the series with DAT [3] (human, ref DeLorenzo et al. [2011], Hopkins et al. [2017]), the “Reported human DAT RO50” value was 4.5 to 6 ng/mL. Besides, the “DAT occupancy OC50” value with DAT [3] (ref DeLorenzo et al. [2011]) is 4 ng/mL. Besides, the “Substrate for other efflux transporters of the ABC superfamily” value in [6] is “not a substrate”. The Potential for abuse result in series [7] is “low potential for abuse compared with MPH”. In addition, in [8], the “Active uptake by SLC and OAT transporters” value was “not actively taken up”. Moreover, in the series with P-gp, the “Substrate for P-gp” value is reported as “not a substrate”. For the same molecule, the “brain:plasma ratio/partition coefficient (Kp)” value in series [9] is listed as 6.2–12.3. Moreover, the “t1/2equil (half-time to reach brain equilibrium), proportional to” value in [4] (1/(P.fu,brain) with extrapolated permeability (DAS 12P, MPH P) and free plasma fraction) is 2.77 P.
